Results from patent US10414774B2, “Compound useful for altering the levels of bile acids for the treatment of diabetes and cardiometabolc disease” (Merck Sharp & Dohme Corp., priority 2016, dated 2019).

Target: T1, Human CYP8B1 (Homo sapiens, UniProt Q9UNU6)
T1 sequence (Q9UNU6 1-501): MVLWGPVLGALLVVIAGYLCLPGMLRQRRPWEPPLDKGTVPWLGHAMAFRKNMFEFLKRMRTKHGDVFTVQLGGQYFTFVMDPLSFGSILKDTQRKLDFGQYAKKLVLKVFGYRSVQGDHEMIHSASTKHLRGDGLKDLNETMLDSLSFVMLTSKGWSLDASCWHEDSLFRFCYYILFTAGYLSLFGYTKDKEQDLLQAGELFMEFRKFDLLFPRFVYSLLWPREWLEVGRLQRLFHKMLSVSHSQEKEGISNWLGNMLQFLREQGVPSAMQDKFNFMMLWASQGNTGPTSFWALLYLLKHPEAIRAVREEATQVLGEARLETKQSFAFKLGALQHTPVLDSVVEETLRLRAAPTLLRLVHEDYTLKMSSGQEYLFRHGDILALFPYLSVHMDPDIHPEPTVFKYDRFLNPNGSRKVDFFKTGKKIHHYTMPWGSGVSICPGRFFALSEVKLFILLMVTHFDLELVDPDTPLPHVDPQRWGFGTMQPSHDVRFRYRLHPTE
Test: Human CYP8B1 Liver Microsome Assay
Conditions: Human CYP8B1 IC50, human liver microsomes; substrate 7a-hydroxy-4-cholesten-3-one, NADPH; RapidFire MS detection of 7α,12α-dihydroxy-4-cholesten-3-one

Cc1nc2ccc(Br)cc2c(N2CCC(C(=O)N3CCn4c(nnc4C(F)(F)F)C3)CC2)c1C#N [Example 48, 6-bromo-2-methyl-4-(4-(3-(trifluoromethyl)-5,6,7,8-tetrahydro-[1,2,4]triazolo[4,3-a]pyrazine-7-carbonyl)piperidin-1-yl)quinoline-3-carbonitrile]
IC50: 109 nM

Cc1nc2c(F)cc(F)cc2c(N2CCC(C(=O)N3CCn4c(nnc4C(F)(F)F)C3)CC2)c1C#N [Example 49, 6,8-difluoro-2-methyl-4-(4-(3-(trifluoromethyl)-5,6,7,8-tetrahydro-[1,2,4]triazolo[4,3-a]pyrazine-7-carbonyl)piperidin-1-yl)quinoline-3-carbonitrile]
IC50: 1730 nM

Cc1nc2cc(F)c(F)cc2c(N2CCC(C(=O)N3CCn4c(nnc4C(F)(F)F)C3)CC2)c1C#N [Example 50, 6,7-difluoro-2-methyl-4-(4-(3-(trifluoromethyl)-5,6,7,8-tetrahydro-[1,2,4]triazolo[4,3-a]pyrazine-7-carbonyl)piperidin-1-yl)quinoline-3-carbonitrile]
IC50: 2260 nM

Cc1nc2ccc(F)c(F)c2c(N2CCC(C(=O)N3CCn4c(nnc4C(F)(F)F)C3)CC2)c1C#N [Example 51, 5,6-difluoro-2-methyl-4-(4-(3-(trifluoromethyl)-5,6,7,8-tetrahydro-[1,2,4]triazolo[4,3-a]pyrazine-7-carbonyl)piperidin-1-yl)quinoline-3-carbontrile]
IC50: 774 nM

Cc1ccc2nc(C)c(C#N)c(N3CCC(C(=O)N4CCn5c(nnc5C(F)(F)F)C4)CC3)c2c1 [Example 52, 2,6-dimethyl-4-(4-(3-(trifluoromethyl)-5,6,7,8-tetrahydro-[1,2,4]triazolo[4,3-a]pyrazine-7-carbonyl)piperidin-1-yl)quinoline-3-carbonitrile]
IC50: 118 nM

Cc1nc2ccc(C3CC3)cc2c(N2CCC(C(=O)N3CCn4c(nnc4C(F)(F)F)C3)CC2)c1C#N [Example 53, 6-cyclopropyl-2-methyl-4-(4-(3-(trifluoromethyl)-5,6,7,8-tetrahydro-[1,2,4]triazolo[4,3-a]pyrazine-7-carbonyl)piperidin-1-yl)quinoline-3-carbonitrile]
IC50: 76 nM

C=Cc1ccc2nc(C)c(C#N)c(N3CCC(C(=O)N4CCn5c(nnc5C(F)(F)F)C4)CC3)c2c1 [Example 54, 2-methyl-4-(4-(3-(trifluoromethyl)-5,6,7,8-tetrahydro-[1,2,4]triazolo[4,3-a]pyrazine-7-carbonyl)piperidin-1-yl)-6-vinylquinoline-3-carbonitrile]
IC50: 149 nM

Cc1nc2ccc(C(F)F)cc2c(N2CCC(C(=O)N3CCn4c(nnc4C(F)(F)F)C3)CC2)c1C#N [Example 55, 6-(difluoromethyl)-2-methyl-4-(4-(3-(trifluoromethyl)-5,6,7,8-tetrahydro-[1,2,4]triazolo[4,3-a]pyrazine-7-carbonyl)piperidin-1-yl)quinoline-3-carbonitrile]
IC50: 78 nM

C[C@@H]1CN(c2c(C#N)c(Cl)nc3ccc(Cl)cc23)CC[C@@H]1C(=O)N1CCn2c(nnc2C(F)(F)F)C1 [Example 56, 2,6-dichloro-4-[(3S,4S)-3-methyl-4-{[3-(trifluoromethyl)-5,6-dihydro[1,2,4]triazolo[4,3-a]pyrazin-7(8H)-yl]carbonyl}piperidin-1-yl]quinoline-3-carbonitrile]
IC50: 1.5 nM

CC1CN(c2c(C#N)c(C(F)F)nc3ccc(Cl)cc23)CCC1C(=O)N1CCn2c(nnc2C(F)(F)F)C1 (centres unmarked) [Example 57, 6-chloro-2-(difluoromethyl)-4-(3-methyl-4-{[3-(trifluoromethyl)-5,6-dihydro[1,2,4]triazolo[4,3-a]pyrazin-7(8H)-yl]carbonyl}piperidin-1-yl)quinoline-3-carbonitrile]
IC50: 69 nM

CC1CN(c2c(C#N)cnc3c(C(F)F)cc(Cl)cc23)CCC1C(=O)N1CCn2c(nnc2C(F)(F)F)C1 (centres unmarked) [Example 58]
IC50: 4.8 nM

COC(=O)c1nc2ccc(Cl)cc2c(N2CC[C@H](C(=O)N3CCn4c(nnc4C(F)(F)F)C3)[C@H](C)C2)c1C#N [Example 59, methyl 6-chloro-3-cyano-4-[(3S,4S)-3-methyl-4-{[3-(trifluoromethyl)-5,6-dihydro[1,2,4]triazolo[4,3-a]pyrazin-7(8H)-yl]carbonyl}piperidin-1-yl]quinoline-2-carboxylate]
IC50: 18 nM

COC(=O)c1ccc2nc(C(=O)OC)c(C#N)c(N3CC[C@H](C(=O)N4CCn5c(nnc5C(F)(F)F)C4)[C@H](C)C3)c2c1 [Example 60, dimethyl 3-cyano-4-[(3S,4S)-3-methyl-4-{[3-(trifluoromethyl)-5,6-dihydro[1,2,4]triazolo[4,3-a]pyrazin-7(8H)-yl]carbonyl}piperidin-1-yl]quinoline-2,6-dicarboxylate]
IC50: 270 nM

C[C@@H]1CN(c2c(C#N)c(CO)nc3ccc(Cl)cc23)CC[C@@H]1C(=O)N1CCn2c(nnc2C(F)(F)F)C1 [Example 61, 6-chloro-2-(hydroxymethyl)-4-[(3S,4S)-3-methyl-4-{[3-(trifluoromethyl)-5,6-dihydro[1,2,4]triazolo[4,3-a]pyrazin-7(8H)-yl]carbonyl}piperidin-1-yl]quinoline-3-carbonitrile]
IC50: 4.5 nM

C[C@@H]1CN(c2c(C#N)cnc3cc(OC(F)F)ccc23)CC[C@@H]1C(=O)N1CCn2c(nnc2C(F)(F)F)C1 [Example 62, 7-(difluoromethoxy)-4-[(3S,4S)-3-methyl-4-{[3-(trifluoromethyl)-5,6-dihydro[1,2,4]triazolo[4,3-a]pyrazin-7(8H)-yl]carbonyl}piperidin-1-yl]quinoline-3-carbonitrile]
IC50: 1.1 nM

C[C@@H]1CN(c2c(C#N)cnc3cc(C4CC4)ccc23)CC[C@@H]1C(=O)N1CCn2c(nnc2C(F)(F)F)C1 [Example 63]
IC50: 1.1 nM

CC(C)Oc1ccc2c(N3CC[C@H](C(=O)N4CCn5c(nnc5C(F)(F)F)C4)[C@H](C)C3)c(C#N)cnc2c1 [Example 64, 4-[(3S,4S)-3-methyl-4-{[3-(trifluoromethyl)-5,6-dihydro[1,2,4]triazolo[4,3-a]pyrazin-7(8H)-yl]carbonyl}piperidin-1-yl]-7-(propan-2-yloxy)quinoline-3-carbonitrile]
IC50: 0.3 nM

C[C@H]1CN(c2c(C#N)cnc3c(F)c(Cl)ccc23)CC[C@H]1C(=O)N1CCn2c(nnc2C2CC2)C1 [Example 65, 7-chloro-4-{(3R,4R)-4-[(3-cyclopropyl-5,6-dihydro[1,2,4]triazolo[4,3-a]pyrazin-7(8H)-yl)carbonyl]-3-methylpiperidin-1-yl}-8-fluoroquinoline-3-carbonitrile]
IC50: 318 nM

C[C@@H]1CN(c2c(C#N)cnc3c(F)c(Cl)ccc23)CC[C@@H]1C(=O)N1CCn2c(nnc2C2CC2)C1 [Example 66, 7-chloro-4-{(3S,4S)-4-[(3-cyclopropyl-5,6-dihydro[1,2,4]triazolo[4,3-a]pyrazin-7(8H)-yl)carbonyl]-3-methylpiperidin-1-yl}-8-fluoroquinoline-3-carbonitrile]
IC50: 0.51 nM

C[C@@H]1CN(c2c(C#N)cnc3c(F)c(C4CC4)ccc23)CC[C@@H]1C(=O)N1CCn2c(nnc2C(F)(F)F)C1 [Example 67, 7-cyclopropyl-8-fluoro-4-[(3S,4S)-3-methyl-4-{[3-(trifluoromethyl)-5,6-dihydro[1,2,4]triazolo[4,3-a]pyrazin-7(8H)-yl]carbonyl}piperidin-1-yl]quinoline-3-carbonitrile]
IC50: 0.89 nM

N#Cc1cnc2cc(OCC3CC3)ccc2c1N1CCC(C(=O)N2CCn3c(nnc3C(F)(F)F)C2)CC1 [Example 68, 7-(cyclopropylmethoxy)-4-(4-{[3-(trifluoromethyl)-5,6-dihydro[1,2,4]triazolo[4,3-a]pyrazin-7(8H)-yl]carbonyl}piperidin-1-yl)quinoline-3-carbonitrile]
IC50: 0.43 nM

CC(C)COc1ccc2c(N3CCC(C(=O)N4CCn5c(nnc5C(F)(F)F)C4)CC3)c(C#N)cnc2c1 [Example 69]
IC50: 0.42 nM

COc1ccc2c(N3CC[C@H](C(=O)N4CCn5c(nnc5C(F)F)C4)[C@H](C)C3)c(C#N)cnc2c1 [Example 70, 4-[(3S,4S)-4-{[3-(difluoromethyl)-5,6-dihydro[1,2,4]triazolo[4,3-a]pyrazin-7(8H)-yl]carbonyl}-3-methylpiperidin-1-yl]-7-methoxyquinoline-3-carbonitrile]
IC50: 0.88 nM

C[C@@H]1CN(c2c(C#N)c[n+]([O-])c3cc(OCC4CC4)ccc23)CC[C@@H]1C(=O)N1CCn2c(nnc2C(F)(F)F)C1 [Example 71, 7-(cyclopropylmethoxy)-4-[(3S,4S)-3-methyl-4-{[3-(trifluoromethyl)-5,6-dihydro[1,2,4]triazolo[4,3-a]pyrazin-7(8H)-yl]carbonyl}piperidin-1-yl]quinoline-3-carbonitrile 1-oxide]
IC50: 0.54 nM

CO[C@@H]1CN(c2c(C#N)cnc3ccc(Cl)cc23)CC[C@@H]1C(=O)N1CCn2c(nnc2C(F)(F)F)C1 [Example 72a, 6-chloro-4-[(3S,4S)-3-methoxy-4-{[3-(trifluoromethyl)-5,6-dihydro[1,2,4]triazolo[4,3-a]pyrazin-7(8H)-yl]carbonyl}piperidin-1-yl]quinoline-3-carbonitrile]
IC50: 22 nM

CO[C@@H]1CN(c2c(C#N)cnc3ccc(Cl)cc23)CC[C@H]1C(=O)N1CCn2c(nnc2C(F)(F)F)C1 [Example 72b, 6-chloro-4-[(3S,4R)-3-methoxy-4-{[3-(trifluoromethyl)-5,6-dihydro[1,2,4]triazolo[4,3-a]pyrazin-7(8H)-yl]carbonyl}piperidin-1-yl]quinoline-3-carbonitrile]
IC50: 441 nM
